From patent US8450525B2, “Histone deacetylase inhibitors” (Orchid Chemicals & Pharmaceuticals Limited, priority 2007, dated 2013)
pIC50: −log10 of the molar value.

What was measured:
[1] = tested on: T1, HDAC (Mouse Liver Extract); assay: HDAC inhibition assay using Boc-Lys(Ac)-AMC substrate, mouse liver enzyme; assay type: biochemical;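 as to pIC50: IC50 for inhibition of HDAC activity in mouse liver extract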
T1 construct: Mouse liver enzyme (10 mg/ml) was diluted 1:6 with HDAC buffer
Description: Histone Deacetylase (HDAC) Inhibition Assay using Boc-Lys (Ac)-AMC Substrate: Inhibition of HDAC has been implicated to modulate transcription and to induce apoptosis or differentiation in cancer cells. The fluorometric assay provides a fast and fluorescence based method that eliminates radioactivity, extractions or chromatography, as used in traditional assays. The assay is based on two steps. First, the HDAC fluorometric substrate, which comprises an acetylated lysine side chain, is incubated with a sample containing HDAC activity (Mouse Liver Extract). Deacetylation of the substrate sensitizes the substrate, in the second step; treatment with the Trypsin stop solution produces a fluorophore that can be easily analyzed using fluorescence plate reader.
Assay was done in 96-well black microplate and total volume of the assay was 100 μL. Mouse liver enzyme (10 mg/ml) was diluted 1:6 with HDAC buffer. Enzyme cocktail was made of 10 μL of diluted enzyme and 30 μL of HDAC buffer. 40 μl of enzyme cocktail followed by 10 μL of test compound (1 μM and 10 μM) or buffer (control) was added to each well. The plate was pre-incubated at 37° C. for 5 minutes. The HDAC reaction was started by adding 50 μl of HDAC substrate Boc-Lys (Ac)-AMC (Bachem AG, Switzerland). The plate was incubated at 37° C. for 30 minutes. […] Measuring the fluorescence at excitation wavelength of 360 nm and emission wavelength of 460 nm monitored the release of AMC. Buffer alone and substrate alone served as blank.

U251 (glioma) cells = assay: Anti-cancer screen, growth inhibition (MTT); assay type: cell-based; conditions: Homo sapiens, U-251 cells, 48 hours of incubation
Description: (§1) Experimental drugs were screened for anti-cancer activity in three cell fines using five concentrations for each compound.
(§2) Following 24-hour incubation, test compounds were added to the 96 well plates. Each plate contains one of the above cell lines and the following samples in triplicate: five different dilutions (0.01, 0.1, 1, 10 and 100 μM) of four test compounds, appropriate dilutions of a cytotoxic standard and growth medium (untreated) wells. […] SAHA was used as standard drug in these experiments.
(§3) For T0 measurement, 24 hours after seeding the cells, 20 μL of 3-(4.5-dimethyl-2-thiazolyl)-2,5-diphenyl-2H-tetrazolium (MTT) solution per well was added to the ‘T0’ plate and incubated for 3 hours at 37° C. in a CO2 incubator. The plate containing cells and test compounds was treated similarly after 48 hours of incubation. After 3 hours of MTT addition, well contents were aspirated carefully followed by addition of 150 μL DMSO per well. Plates were agitated to ensure dissolution of the formazan crystals in DMSO and absorbance was read at 570 nm (A570).

HCT 116 (colon) cells = assay: Anti-cancer screen, growth inhibition (MTT); assay type: cell-based; conditions: Homo sapiens, HCT-116 cells, 48 hours of incubation
Description: as §1, §2, §3

NCI-H460 (lung) cells = assay: Anti-cancer screen, growth inhibition (MTT); assay type: cell-based; conditions: Homo sapiens, 48 hours of incubation
Description: as §1, §2, §3

Compound: O=C(/C=C/c1ccc(/C=C(/C(=O)NC2CC2)c2ccc(F)cc2)cc1)NCc1ccc(C(=O)NO)cc1 [Example 89, 4-(((1E)-3-(4-(3-(Cyclopropylamino)-2-(4-fluorophenyl)-3-oxoprop-1-en-1-yl)phenyl)acrylamido)methyl)-N-hydroxybenzamide]
- HDAC Inhibition % (1 μM) [1]: 42.1%
- HDAC Inhibition % (10 μM) [1]: 70.3%
- GI50 (U251 (glioma) cells): 13 µM
- GI50 (HCT 116 (colon) cells): 40 µM
- GI50 (NCI-H460 (lung) cells): > 100 µM

Compound: Nc1ccccc1NC(=O)/C=C/c1ccc(/C=C(/C(=O)NC2CC2)c2ccccc2F)cc1 [Example 65, N-Cyclopropyl-3-(4-((1E)-3-(2-aminophenylamino)-3-oxoprop-1-en-1-yl}phenyl)-2-(2-fluorophenyl)acrylamide]
- HDAC Inhibition % (1 μM) [1]: 31.2%
- HDAC Inhibition % (10 μM) [1]: 56.2%
- GI50 (U251 (glioma) cells): 82 µM
- GI50 (HCT 116 (colon) cells): > 100 µM
- GI50 (NCI-H460 (lung) cells): 80 µM

Compound: Nc1ccccc1NC(=O)c1ccc(/C=C(/C(=O)NC2CC2)c2ccc(O)cc2)cc1 [Example 128, N-(2-Aminophenyl)-4-(2-(4-hydroxyphenyl)-3-(cyclopropylamino)-3-oxoprop-1-en-1-yl)benzamide]
- HDAC Inhibition % (1 μM) [1]: 31.8%
- HDAC Inhibition % (10 μM) [1]: 55.1%
- GI50 (U251 (glioma) cells): 28 µM
- GI50 (HCT 116 (colon) cells): 24 µM
- GI50 (NCI-H460 (lung) cells): 26 µM

Compound: Cc1ccccc1/C(=C\c1ccc(C(=O)Nc2ccccc2N)cc1)C(=O)NC1CC1 [Example 133, N-(2-Aminophenyl)-4-(3-(cyclopropylamino)-2-(2-methylphenyl)-3-oxoprop-1-en-1-yl)benzamide]
- HDAC Inhibition % (1 μM) [1]: 39.6%
- HDAC Inhibition % (10 μM) [1]: 56.7%
- GI50 (U251 (glioma) cells): 12 µM
- GI50 (HCT 116 (colon) cells): 2.8 µM
- GI50 (NCI-H460 (lung) cells): 6.6 µM

Compound: O=C(NC1CC1)/C(=C/c1ccc(C(=O)NCc2ccc(C(=O)NO)cc2)cc1)c1cccc(Cl)c1 [Example 153, 4-(3-(Cyclopropylamino)-2-(3-chlorophenyl)-3-oxoprop-1-en-1-yl)-N-(4-(hydroxycarbamoyl)benzyl)benzamide]
- HDAC Inhibition % (1 μM) [1]: 87.5%
- HDAC Inhibition % (10 μM) [1]: 97.1%
- GI50 (U251 (glioma) cells): 21 µM
- GI50 (HCT 116 (colon) cells): 10.2 µM
- GI50 (NCI-H460 (lung) cells): 19 µM

Compound: Nc1ccccc1NC(=O)c1ccc(/C=C(/CNC2CC2)c2ccc(F)cc2)cc1 [Example 144, N-(2-Aminophenyl)-4-(3-(cyclopropylamino)-2-(4-fluorophenyl)prop-1-en-1-yl)benzamide]
- HDAC Inhibition % (1 μM) [1]: 36.3%
- HDAC Inhibition % (10 μM) [1]: 62.3%
- GI50 (U251 (glioma) cells): 8 µM
- GI50 (HCT 116 (colon) cells): 5.5 µM
- GI50 (NCI-H460 (lung) cells): 10 µM

Compound: O=C(/C=C/c1ccc(/C=C(/C(=O)NCc2ccc(F)cc2)c2ccc(F)cc2)cc1)NO [Example 34, N-(4-Fluorobenzyl)-2-(4-fluorophenyl)-3-(4-((1E)-3-(hydroxyamino)-3-oxoprop-1-en-1-yl)phenyl)acrylamide]
- pIC50 [1]: 6.72
- HDAC Inhibition % (1 μM) [1]: 64.8%
- HDAC Inhibition % (10 μM) [1]: 94.3%
- GI50 (U251 (glioma) cells): 1.5 µM
- GI50 (HCT 116 (colon) cells): 1.3 µM
- GI50 (NCI-H460 (lung) cells): 1.2 µM

Compound: O=C(/C=C/c1ccc(/C=C(/C(=O)N2CCOCC2)c2ccccc2F)cc1)NO [Example 16]
- pIC50 [1]: 6.46
- HDAC Inhibition % (1 μM) [1]: 98.1%
- HDAC Inhibition % (10 μM) [1]: 99.9%
- GI50 (U251 (glioma) cells): 11 µM
- GI50 (HCT 116 (colon) cells): 2.8 µM
- GI50 (NCI-H460 (lung) cells): 2.1 µM

Compound: COc1ccc(/C(=C\c2ccc(/C=C/C(=O)Nc3ccccc3N)cc2)C(=O)NC2CC2)cc1OC [Example 74, N-Cyclopropyl-3-(4-((1E)-3-(2-aminophenylamino)-3-oxoprop-1-en-1-yl}phenyl)-2-(3,4-dimethoxyphenyl)acrylamide]
- HDAC Inhibition % (1 μM) [1]: 12.3%
- HDAC Inhibition % (10 μM) [1]: 12.1%
- GI50 (U251 (glioma) cells): 90 µM
- GI50 (HCT 116 (colon) cells): 100 µM
- GI50 (NCI-H460 (lung) cells): > 100 µM

Compound: Cc1ccc(/C(=C\c2ccc(C(=O)NO)cc2)C(=O)NC2CC2)cc1 [Example 99, 4-(3-(Cyclopropylamino)-2-(4-methylphenyl)-3-oxoprop-1-en-1-yl)-N-hydroxy benzamide]
- HDAC Inhibition % (1 μM) [1]: 40.2%
- HDAC Inhibition % (10 μM) [1]: 59.0%
- GI50 (U251 (glioma) cells): 12 µM
- GI50 (HCT 116 (colon) cells): 32 µM
- GI50 (NCI-H460 (lung) cells): 66 µM
